Reference: ChEMBL document CHEMBL3612058, “Synthesis and biological evaluation of a new series of 2-amino-3-aroyl thiophene derivatives as agonist allosteric modulators of the A1 adenosine receptor. A position-dependent effect study” (Eur J Med Chem, 2015)

How the values were obtained:
[1] = biological target: T1, Adenosine receptor A1 (Homo sapiens) (UniProt P30542); experiment: Positive allosteric enhancement of human cloned adenosine A1 receptor expressed in CHO cells assessed as inhibition of forskolin-induced cAMP accumulation at 10 uM using [3H]-cAMP by scintillation counting relative to control; type: functional, cell-based
T1 sequence (whole entry): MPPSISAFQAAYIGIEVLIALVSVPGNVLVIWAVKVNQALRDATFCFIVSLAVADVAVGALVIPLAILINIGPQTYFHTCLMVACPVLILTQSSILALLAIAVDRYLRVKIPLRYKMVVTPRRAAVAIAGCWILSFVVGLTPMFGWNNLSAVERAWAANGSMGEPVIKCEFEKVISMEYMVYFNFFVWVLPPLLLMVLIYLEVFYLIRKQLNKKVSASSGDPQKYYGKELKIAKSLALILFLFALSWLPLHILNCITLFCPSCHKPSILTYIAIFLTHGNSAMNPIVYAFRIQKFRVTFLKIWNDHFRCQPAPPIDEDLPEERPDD

[2] = biological target: T1, Adenosine receptor A1 (Homo sapiens); experiment: Positive allosteric enhancement of human cloned adenosine A1 receptor expressed in CHO cells assessed as inhibition of forskolin-induced cAMP accumulation at 100 nM using [3H]-cAMP by scintillation counting relative to control in presence of 1 pM of CCPA; type: functional, cell-based
[3] = biological target: T1, Adenosine receptor A1 (Homo sapiens); experiment: Ratio of PD81723 to compound for positive allosteric enhancement of human cloned adenosine A1 receptor expressed in CHO cells assessed as inhibition of forskolin-induced cAMP accumulation at 10 uM using [3H]-cAMP by scintillation counting; type: functional, cell-based
[4] = biological target: T1, Adenosine receptor A1 (Homo sapiens); experiment: Displacement of [3H]DPCPX from human adenosine A1 receptor expressed in CHO cells at 10 uM after 120 mins by scintillation counting; type: cell-based
[5] = Displacement of [3H]-ZM241385 from human adenosine A2 receptor expressed in CHO cells at 10 uM after 120 mins by scintillation counting; type: cell-based
[6] = biological target: T2, Adenosine receptor A3 (Homo sapiens) (UniProt P0DMS8); experiment: Displacement of [3H]-MRE-3008-F20 from human adenosine A3 receptor expressed in CHO cells at 10 uM after 120 mins by scintillation counting; type: cell-based
T2 sequence (whole entry): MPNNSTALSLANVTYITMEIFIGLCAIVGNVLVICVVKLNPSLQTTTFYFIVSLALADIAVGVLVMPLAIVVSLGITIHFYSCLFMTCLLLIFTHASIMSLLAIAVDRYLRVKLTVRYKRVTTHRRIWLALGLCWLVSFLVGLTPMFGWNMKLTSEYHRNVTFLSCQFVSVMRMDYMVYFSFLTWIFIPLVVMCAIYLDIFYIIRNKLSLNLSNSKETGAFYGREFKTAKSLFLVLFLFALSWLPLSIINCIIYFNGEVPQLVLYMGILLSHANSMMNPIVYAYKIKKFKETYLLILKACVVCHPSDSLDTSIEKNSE

[7] = biological target: T1, Adenosine receptor A1 (Homo sapiens); experiment: Binding affinity to human adenosine A1 receptor expressed in CHO cells assessed as fold Bmax shift of [3H]-CCPA at 10 uM after 90 mins by [3H]-CCPA binding assay relative to control; type: cell-based
[8] = biological target: T1, Adenosine receptor A1 (Homo sapiens); experiment: Binding affinity to human adenosine A1 receptor expressed in CHO cells assessed as fold Ki shift of CCPA at 10 uM after 90 mins by [3H]-CCPA displacement assay relative to control; type: cell-based

| Compound | inhibition [1] | inhibition [2] | Ratio [3] | inhibition [4] | inhibition [6] | fold change (FC) [7] | fold change (FC) [8] | inhibition [5] |
| --- | --- | --- | --- | --- | --- | --- | --- | --- |
| Nc1sc(-c2ccccc2)c(Cc2cccc3ccccc23)c1C(=O)c1ccc(Cl)cc1 | 57% | 58% |  | < 10% | < 10% | 6.1 | 4.3 | < 10% |
| CC(C)Oc1ccc(Cc2sc(N)c(C(=O)c3ccc(Cl)cc3)c2-c2ccccc2)cc1 | 26% | 26% |  | < 10% | < 10% | 1.8 | 2 | < 10% |
| Nc1sc(Cc2ccccc2)c(-c2ccccc2)c1C(=O)c1ccc(Cl)cc1 | 34% | 35% |  | < 10% | < 10% | 2.6 | 1.9 | < 10% |
| COc1c(C)cc(Cc2c(-c3ccccc3)sc(N)c2C(=O)c2ccc(Cl)cc2)cc1C | 59% | 61% | 3 | < 10% | < 10% | 6.6 | 4.6 | < 10% |
| Nc1sc(-c2ccccc2)c(Cc2ccc(C(F)(F)F)cc2)c1C(=O)c1ccc(Cl)cc1 | 69% | 66% | 3 | < 10% | < 10% | 9.1 | 8.9 | < 10% |
| CSc1ccc(Cc2c(-c3ccccc3)sc(N)c2C(=O)c2ccc(Cl)cc2)cc1 | 63% | 65% | 3 | < 10% | < 10% | 6.6 | 6.3 | < 10% |
| COc1ccc(Cc2c(-c3ccccc3)sc(N)c2C(=O)c2ccc(Cl)cc2)cc1C | 66% | 66% | 3 | < 10% | < 10% | 8.1 | 6.1 | < 10% |
| COc1ccc(Cc2c(-c3ccccc3)sc(N)c2C(=O)c2ccc(Cl)cc2)c(OC)c1 | 52% | 53% | 3 | < 10% | < 10% | 5.6 | 4.2 | < 10% |
| Nc1sc(-c2ccc(Cl)cc2)c(Cc2ccccc2)c1C(=O)c1ccc(Cl)cc1 | 69% | 67% | 3 | < 10% | < 10% | 7.2 | 8.4 | < 10% |
| COc1ccc(Cc2sc(N)c(C(=O)c3ccc(Cl)cc3)c2-c2ccccc2)cc1C | 31% | 30% |  | < 10% | < 10% | 2.7 | 2.4 | < 10% |
| Nc1sc(Cc2cccc3ccccc23)c(-c2ccccc2)c1C(=O)c1ccc(Cl)cc1 | 21% | 22% |  | < 10% | < 10% | 1.5 | 1.4 | < 10% |
| COc1cc(Cc2c(-c3ccccc3)sc(N)c2C(=O)c2ccc(Cl)cc2)cc(OC)c1OC | 47% | 43% | 3 | < 10% | < 10% | 4.3 | 3.8 | < 10% |
| CC(C)(C)Cc1c(-c2ccc(Cl)cc2)sc(N)c1C(=O)c1ccc(Cl)cc1 |  |  |  |  |  | 5.8 | 4 |  |
| Nc1sc(-c2ccc(Cl)cc2)c(CN2CCN(c3ccc(Cl)cc3)CC2)c1C(=O)c1ccc(Cl)cc1 |  |  |  |  |  | 11.4 | 8.7 |  |
| COc1ccc(Cc2sc(N)c(C(=O)c3ccc(Cl)cc3)c2-c2ccccc2)cc1 | 35% | 36% |  | < 10% | < 10% | 2.8 | 2 | < 10% |
| Nc1sc(Cc2ccc(OC(F)(F)F)cc2)c(-c2ccccc2)c1C(=O)c1ccc(Cl)cc1 | 24% | 25% |  | < 10% | < 10% | 1.8 | 1.8 | < 10% |
| Nc1sc(Cc2ccc(C(F)(F)F)cc2)c(-c2ccccc2)c1C(=O)c1ccc(Cl)cc1 | 25% | 24% |  | < 10% | < 10% | 1.8 | 1.6 | < 10% |
| CCOc1ccc(Cc2sc(N)c(C(=O)c3ccc(Cl)cc3)c2-c2ccccc2)cc1 | 22% | 21% |  | < 10% | < 10% | 1.5 | 1.5 | < 10% |
| COc1cccc(Cc2sc(N)c(C(=O)c3ccc(Cl)cc3)c2-c2ccccc2)c1 | 32% | 31% |  | < 10% | < 10% | 2.6 | 1.9 | < 10% |

Now from value to molecule, other results behind:

| inhibition [1] | inhibition [2] | Ratio [3] | inhibition [4] | inhibition [6] | fold change (FC) [7] | fold change (FC) [8] | Compound | inhibition [5] |
| --- | --- | --- | --- | --- | --- | --- | --- | --- |
| 65% | 67% | 3 | < 10% | < 10% | 7.6 | 5.8 | CC(C)Oc1ccc(Cc2c(-c3ccccc3)sc(N)c2C(=O)c2ccc(Cl)cc2)cc1 | < 10% |
| 70% | 67% | 3 | < 10% | < 10% | 8.5 | 6.6 | COc1ccc(Cc2c(-c3ccc(Cl)cc3)sc(N)c2C(=O)c2ccc(Cl)cc2)cc1 | < 10% |
| 58% | 59% | 3 | < 10% | < 10% | 6.3 | 5.4 | COc1ccc(Cc2c(-c3ccc(F)cc3)sc(N)c2C(=O)c2ccc(Cl)cc2)cc1 | < 10% |
| 50% | 49% | 3 | < 10% | < 10% | 4.9 | 3.9 | Nc1sc(-c2ccc(F)cc2)c(Cc2ccccc2)c1C(=O)c1ccc(Cl)cc1 | < 10% |
| 56% | 58% | 3 | < 10% | < 10% | 5.6 | 5.1 | Cc1ccc(Cc2c(-c3ccccc3)sc(N)c2C(=O)c2ccc(Cl)cc2)cc1 | < 10% |
| 53% | 55% | 3 | < 10% | < 10% | 5.3 | 4.1 | Nc1sc(-c2ccc(F)cc2)c(Cc2ccc(Cl)cc2)c1C(=O)c1ccc(Cl)cc1 | < 10% |
| 52% | 55% | 3 | < 10% | < 10% | 5.3 | 5.2 | CSc1ccc(Cc2c(-c3ccc(F)cc3)sc(N)c2C(=O)c2ccc(Cl)cc2)cc1 | < 10% |
| 45% | 41% | 3 | < 10% | < 10% | 4.8 | 3.7 | Nc1sc(-c2ccc(F)cc2)c(Cc2ccc(F)cc2)c1C(=O)c1ccc(Cl)cc1 | < 10% |
| 71% | 69% | 3 | < 10% | < 10% | 8.6 | 7.2 | Cc1ccc(Cc2c(-c3ccc(Cl)cc3)sc(N)c2C(=O)c2ccc(Cl)cc2)cc1 | < 10% |
| 49% | 48% | 3 | < 10% | < 10% | 5 | 3.9 | COc1ccc(-c2sc(N)c(C(=O)c3ccc(Cl)cc3)c2Cc2ccc(Cl)cc2)cc1 | < 10% |
